Measured values: patent publication US20130217664A1, “NOVEL COMPOUNDS USEFUL FOR THE TREATMENT OF DEGENERATIVE AND INFLAMMATORY DISEASES” (priority 2012, published 2013)

How the values were obtained:
human JAK3 = biological target: T1, human JAK3 (Homo sapiens, UniProt P52333); assay: JAK3 inhibition assay; assay type: biochemical; details: recombinant human JAK3 catalytic domain; polyGT substrate
T1 construct: catalytic domain (amino acids 781-1124; catalog number PV3855); purchased Invitrogen PV3855
T1 sequence (P52333 781-1124): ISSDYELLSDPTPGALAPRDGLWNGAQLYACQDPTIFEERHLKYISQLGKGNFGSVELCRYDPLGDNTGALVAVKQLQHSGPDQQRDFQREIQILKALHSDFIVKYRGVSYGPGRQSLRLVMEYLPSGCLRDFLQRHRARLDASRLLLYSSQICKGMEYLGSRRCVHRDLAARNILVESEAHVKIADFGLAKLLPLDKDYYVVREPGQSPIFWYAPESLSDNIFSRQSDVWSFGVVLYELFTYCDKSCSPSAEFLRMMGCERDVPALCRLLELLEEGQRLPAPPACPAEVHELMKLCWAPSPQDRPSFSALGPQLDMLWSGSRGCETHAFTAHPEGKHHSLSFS
Summary of the method: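 Radiometric kinase assay: 0.5 ng JAK3 with 2.5 μg polyGT in Tris pH 7.5/MgCl2 buffer, 1 μM ATP plus 0.25 μCi 33P-γ-ATP, 1% DMSO, 45 min at 30 °C, stopped with phosphoric acid.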

CTLL-2 cell line = assay: CTLL2 viability assay; assay type: cell-based; details: Mus musculus, IL-2 dependent CTLL2 viability, 24 h, ATP-lite
From the text: The protocol describes the methods to analyse the activity of compounds on their ability to sustain the IL2-dependent viability of CTLL2.
Final DMSO concentration was 0.1%.

human JAK1 = biological target: T2, human JAK1 (Homo sapiens, UniProt P23458); assay: JAK1 inhibition assay (polyGT substrate / Ulight-JAK1 peptide); assay type: biochemical; details: recombinant human JAK1 catalytic domain; polyGT or Ulight-JAK1 peptide assay
T2 construct: catalytic domain, amino acids 866-1154; catalog number PV4774; purchased Invitrogen PV4774
T2 sequence (P23458 866-1154): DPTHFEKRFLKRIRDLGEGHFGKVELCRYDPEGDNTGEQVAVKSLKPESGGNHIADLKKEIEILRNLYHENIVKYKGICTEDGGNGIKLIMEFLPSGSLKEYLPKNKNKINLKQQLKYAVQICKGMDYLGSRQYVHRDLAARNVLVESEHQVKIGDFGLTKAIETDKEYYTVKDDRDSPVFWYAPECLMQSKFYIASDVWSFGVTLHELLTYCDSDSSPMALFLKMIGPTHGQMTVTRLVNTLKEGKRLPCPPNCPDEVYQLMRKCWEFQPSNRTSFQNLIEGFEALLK
Summary of the method: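 Two formats. PolyGT radiometric: 45 min at 30 °C, stopped with phosphoric acid, counted as cpm. Ulight-JAK1 peptide: 60 min at room temperature, stopped with Eu-anti-phosphotyrosine/EDTA, read as RFU. Percent inhibition normalised to vehicle and 10 μM staurosporine.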

human TYK2 = biological target: T3, human TYK2 (Homo sapiens, UniProt P29597); assay: TYK2 inhibition assay; assay type: biochemical; details: recombinant human TYK2 catalytic domain, polyGT substrate
T3 construct: catalytic domain (amino acids 871-1187; catalog number 08-147); purchased Carna Biosciences 08-147
T3 sequence (P29597 871-1187): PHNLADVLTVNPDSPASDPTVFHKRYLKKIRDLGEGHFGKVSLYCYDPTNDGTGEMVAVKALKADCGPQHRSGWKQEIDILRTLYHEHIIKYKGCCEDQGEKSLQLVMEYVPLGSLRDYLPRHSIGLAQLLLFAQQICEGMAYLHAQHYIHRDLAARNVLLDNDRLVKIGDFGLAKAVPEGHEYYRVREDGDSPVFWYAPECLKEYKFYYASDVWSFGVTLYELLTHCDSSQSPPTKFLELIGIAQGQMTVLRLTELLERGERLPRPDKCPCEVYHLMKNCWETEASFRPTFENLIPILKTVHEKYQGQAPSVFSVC
Summary of the method: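 Radiometric kinase reaction run 90 min at 30 °C, stopped with phosphoric acid, washed and scintillation-counted.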

human JAK2 = biological target: T4, human JAK2 (Homo sapiens, UniProt O60674); assay: JAK2 inhibition assay (polyGT substrate / Ulight-JAK1 peptide); assay type: biochemical; details: recombinant human JAK2 catalytic domain; polyGT or Ulight-JAK1 peptide assay
T4 construct: catalytic domain (amino acids 808-1132; catalog number PV4210); GST; purchased Invitrogen PV4210
T4 sequence (O60674 808-1132): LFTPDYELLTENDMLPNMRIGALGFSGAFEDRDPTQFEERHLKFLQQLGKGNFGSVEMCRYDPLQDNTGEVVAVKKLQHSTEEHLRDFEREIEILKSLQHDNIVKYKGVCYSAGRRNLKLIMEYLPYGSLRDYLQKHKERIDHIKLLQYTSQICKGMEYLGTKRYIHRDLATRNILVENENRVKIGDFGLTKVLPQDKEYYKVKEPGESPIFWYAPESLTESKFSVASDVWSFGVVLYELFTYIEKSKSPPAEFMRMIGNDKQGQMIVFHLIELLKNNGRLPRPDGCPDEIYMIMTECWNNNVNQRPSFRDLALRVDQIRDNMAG
Summary of the method: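 Radiometric: 0.025 mU JAK2 with 2.5 μg polyGT, 1 μM ATP plus ^33P-ATP in MOPS pH 7.5 buffer, 1% DMSO, 90 min at 30° C.; filter counting. Alternative TR-FRET format with Ulight-JAK1 peptide, 60 min at room temperature, Eu-anti-phosphotyrosine detection.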

BA/F3 cell line = assay: BA/F3 viability assay; details: Mus musculus, BaF3, 48 h, read-out: BA/F3 IC50

| IC50 (human JAK3) | IC50 (human JAK1) | IC50 (human TYK2) | IC50 (human JAK2) | IC50 (BA/F3 cell line) | SMILES | IC50 (CTLL-2 cell line) |
| --- | --- | --- | --- | --- | --- | --- |
| 101 to 500 nM | 0.01 to 100 nM | 0.01 to 100 nM | 0.01 to 100 nM | > 5000 nM | CCc1cc(C(C#N)N2CCC(F)(F)CC2)ccc1N(C)c1cc2c(cn1)ncn2C (stereo not drawn) [Compound 395, (4,4-Difluoro-piperidin-1-yl)-{3-ethyl-4-[methyl-(1-methyl-1H-imidazo[4,5-c]pyridin-6-yl)-amino]-phenyl}-acetonitrile] | > 1000 nM |
| 101 to 500 nM | 0.01 to 100 nM | 0.01 to 100 nM | 0.01 to 100 nM | 1000 to 5000 nM | CCc1cc(C2CN(S(=O)(=O)CCOC)C2)ccc1N(C)c1cc2c(cn1)ncn2C [Compound 349, {2-Ethyl-4-[1-(2-methoxy-ethanesulfonyl)-azetidin-3-yl]-phenyl}-methyl-(1-methyl-1H-imidazo[4,5-c]pyridin-6-yl)-amine] | > 1000 nM |
| 501 to 1000 nM | 0.01 to 100 nM | > 1000 nM | 101 to 500 nM | > 5000 nM | CN(c1cc2c(cn1)ncn2C)c1c(F)cc(C2CN(S(C)(=O)=O)C2)cc1F [Compound 409, [2,6-Difluoro-4-(1-methanesulfonyl-azetidin-3-yl)-phenyl]-methyl-(1-methyl-1H-imidazo[4,5-c]pyridin-6-yl)-amine] | > 1000 nM |
| 0.01 to 100 nM | 0.01 to 100 nM | 0.01 to 100 nM | 0.01 to 100 nM | > 5000 nM | CCc1cc(C2CN(S(=O)(=O)CC(F)(F)F)C2)ccc1N(C)c1cc2c(cn1)ncn2C [Compound 352, {2-Ethyl-4-[1-(2,2,2-trifluoro-ethanesulfonyl)-azetidin-3-yl]-phenyl}-methyl-(1-methyl-1H-imidazo[4,5-c]pyridin-6-yl)-amine] | > 1000 nM |
| 0.01 to 100 nM | 0.01 to 100 nM | 0.01 to 100 nM | 0.01 to 100 nM | 1000 to 5000 nM | CCc1cc(CN(CC#N)S(C)(=O)=O)cc(F)c1N(C)c1cc2c(cn1)ncn2C [Compound 357, N-Cyanomethyl-N-{3-ethyl-5-fluoro-4-[methyl-(1-methyl-1H-imidazo[4,5-c]pyridin-6-yl)-amino]-benzyl}-methanesulfonamide] | > 1000 nM |
| 0.01 to 100 nM | 0.01 to 100 nM | 0.01 to 100 nM | 0.01 to 100 nM | > 5000 nM | CCc1cc(C(C#N)N2CCN(S(C)(=O)=O)CC2)ccc1N(C)c1cc2c(cn1)ncn2C (stereo not drawn) [Compound 390, {3-Ethyl-4-[methyl-(1-methyl-1H-imidazo[4,5-c]pyridin-6-yl)-amino]-phenyl}-(4-methanesulfonyl-piperazin-1-yl)-acetonitrile] | > 1000 nM |
| 0.01 to 100 nM | 0.01 to 100 nM | 0.01 to 100 nM | 0.01 to 100 nM | 1000 to 5000 nM | CCc1cc(N2CCC(F)(F)C2)ncc1N(C)c1cc2c(cn1)ncn2C [Compound 411, [6-(3,3-Difluoro-pyrrolidin-1-yl)-4-ethyl-pyridin-3-yl]-methyl-(1-methyl-1H-imidazo[4,5-c]pyridin-6-yl)-amine] | > 1000 nM |
| 0.01 to 100 nM | 0.01 to 100 nM | 0.01 to 100 nM | 0.01 to 100 nM | 1000 to 5000 nM | CCc1cc(CC#N)ccc1N(C)c1cc2c(cn1)ncn2C [Compound 406, {3-Ethyl-4-[methyl-(1-methyl-1H-imidazo[4,5-c]pyridin-6-yl)-amino]-phenyl}-acetonitrile] | 501 to 1000 nM |
| > 1000 nM | 101 to 500 nM | > 1000 nM | > 1000 nM | > 5000 nM | CCc1cc(C2CN(CC(F)(F)F)C2)ncc1N(C)c1cc2c(cn1)ncn2C [Compound 342, {4-Ethyl-6-[1-(2,2,2-trifluoro-ethyl)-azetidin-3-yl]-pyridin-3-yl}-methyl-(1-methyl-1H-imidazo[4,5-c]pyridin-6-yl)-amine] | > 1000 nM |
| 0.01 to 100 nM | 0.01 to 100 nM | 0.01 to 100 nM | 0.01 to 100 nM | 1000 to 5000 nM | CCc1cc(C2CN(S(=O)(=O)C(F)F)C2)ccc1N(C)c1cc2c(cn1)ncn2C [Compound 354, {4-[1-(Difluoro-methanesulfonyl)-azetidin-3-yl]-2-ethyl-phenyl}-methyl-(1-methyl-1H-imidazo[4,5-c]pyridin-6-yl)-amine] | 501 to 1000 nM |
| 0.01 to 100 nM | 0.01 to 100 nM | 0.01 to 100 nM | 0.01 to 100 nM | 1000 to 5000 nM | CCc1cc(C2(C#N)CC2)ccc1N(C)c1cc2c(cn1)ncn2C [Compound 385, 1-{3-Ethyl-4-[methyl-(1-methyl-1H-imidazo[4,5-c]pyridin-6-yl)-amino]-phenyl}-cyclopropanecarbonitrile] | > 1000 nM |
| 101 to 500 nM | 0.01 to 100 nM | 101 to 500 nM | 101 to 500 nM | > 5000 nM | CCc1cc(CNCC(F)F)ccc1N(C)c1cc2c(cn1)ncn2C [Compound 379] | > 1000 nM |
| 101 to 500 nM | 0.01 to 100 nM | > 1000 nM | 101 to 500 nM | > 5000 nM | CN(c1cc2c(cn1)ncn2C)c1ccc(C2CN(CC(F)(F)F)C2)cc1OC(F)F [Compound 364, {2-Difluoromethoxy-4-[1-(2,2,2-trifluoro-ethyl)-azetidin-3-yl]-phenyl}-methyl-(1-methyl-1H-imidazo[4,5-c]pyridin-6-yl)-amine] | > 1000 nM |
| 0.01 to 100 nM | 0.01 to 100 nM | 0.01 to 100 nM | 0.01 to 100 nM | 1000 to 5000 nM | CCc1cc(C2CN(S(=O)(=O)CC#N)C2)ccc1N(C)c1cc2c(cn1)ncn2C [Compound 353, (3-{3-Ethyl-4-[methyl-(1-methyl-1H-imidazo[4,5-c]pyridin-6-yl)-amino]-phenyl}-azetidine-1-sulfonyl)-acetonitrile] | 501 to 1000 nM |
| 501 to 1000 nM | 0.01 to 100 nM | 0.01 to 100 nM | 0.01 to 100 nM | 1000 to 5000 nM | CN(c1cc2c(cn1)ncn2C)c1c(F)cc(CC#N)cc1F [Compound 405, {3,5-Difluoro-4-[methyl-(1-methyl-1H-imidazo[4,5-c]pyridin-6-yl)-amino]-phenyl}-acetonitrile] | > 1000 nM |
| > 1000 nM | 101 to 500 nM | 501 to 1000 nM | 501 to 1000 nM | > 5000 nM | CCc1cc(N2CC(C(=O)NC)C2)ncc1N(C)c1cc2c(cn1)ncn2C [Compound 400, 1-{4-Ethyl-5-[methyl-(1-methyl-1H-imidazo[4,5-c]pyridin-6-yl)-amino]-pyridin-2-yl}-azetidine-3-carboxylic acid methylamide] | > 1000 nM |
| 0.01 to 100 nM | 0.01 to 100 nM | 101 to 500 nM | 0.01 to 100 nM | 1000 to 5000 nM | CCc1cc(C2(COS(=O)(=O)C(F)F)CCNC2)ccc1N(C)c1cc2c(cn1)ncn2C (stereo not drawn) [Compound 398, difluoro-methanesulfonic acid 3-{3-ethyl-4-[methyl-(1-methyl-1H-imidazo[4,5-c]pyridin-6-yl)-amino]-phenyl}-pyrrolidin-3-ylmethyl ester] | > 1000 nM |
| 501 to 1000 nM | 0.01 to 100 nM | 501 to 1000 nM | 101 to 500 nM | 1000 to 5000 nM | CCc1cc(C2CCN(S(C)(=O)=O)CC2)ncc1N(C)c1cc2c(cn1)ncn2C [Compound 383, (4-Ethyl-1′-methanesulfonyl-1′,2′,3′,4′,5′,6′-hexahydro-[2,4′]bipyridinyl-5-yl)-methyl-(1-methyl-1H-imidazo[4,5-c]pyridin-6-yl)-amine] | > 1000 nM |
| > 1000 nM | 0.01 to 100 nM | > 1000 nM | > 1000 nM | > 5000 nM | CCc1cc(CNC(=O)C2CCC(F)(F)CC2)ccc1N(C)c1cc2c(cn1)ncn2C [Compound 377, 4,4-Difluoro-cyclohexanecarboxylic acid 3-ethyl-4-[methyl-(1-methyl-1H-imidazo[4,5-c]pyridin-6-yl)-amino]-benzylamide] | > 1000 nM |
